Measurements reported in ChEMBL document CHEMBL1201862, “PubChem BioAssay data set” (2004).
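96-well plates; 48 h exposure; 5 concentrations. Endpoints by linear interpolation between flanking doses. Not reached: highest tested concentration assigned. GI50 marks 50% less growth.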 Calls of active or inactive are those of the source. Rule as the data show it: active = GI50 up to about 1.1 µM and inactive = higher.

What was measured:
Assay in all cases: NCI anticancer screen, dose series, 48 h
[1] = system: SF-539
[2] = system: SR
[3] = system: HOP-18
[4] = system: CCRF-CEM
[5] = system: HT-29
[6] = system: A549
[7] = system: NCI-H23
[8] = system: HL-60
[9] = system: SN12C
[10] = system: OVCAR-5
[11] = system: Malme-3M
[12] = system: KM-20L2
[13] = system: SNB-75
[14] = system: DLD-1
[15] = system: LXFL 529
[16] = system: RXF 393
[17] = system: MOLT-4
[18] = system: SK-MEL-2
[19] = system: IGROV-1
[20] = system: UO-31
[21] = system: SK-MEL-28
[22] = system: A498
[23] = system: M14
[24] = system: U-251
[25] = system: DMS-114
[26] = system: SNB-78
[27] = system: COLO 205
[28] = system: SF-268
[29] = system: HCT-116
[30] = system: OVCAR-4
[31] = system: HOP-92
[32] = system: EKVX
[33] = system: RPMI-8226
[34] = system: SF-295
[35] = system: SK-OV-3
[36] = system: 786-0
[37] = system: TK-10
[38] = system: KM12
[39] = system: M19-MEL
[40] = system: RXF 631
[41] = system: HCC 2998
[42] = system: OVCAR-3
[43] = system: XF498
[44] = system: HOP-62
[45] = system: UACC-62
[46] = system: SK-MEL-5
[47] = system: SW-620
[48] = system: SNB-19
[49] = system: LOX IMVI
[50] = system: OVCAR-8
[51] = system: DMS-273
[52] = system: UACC-257
[53] = system: K562
[54] = system: HCT-15
[55] = system: NCI-H460
[56] = system: CAKI-1
[57] = system: NCI-H522
[58] = system: ACHN
[59] = system: NCI-H226

Measured: GI50

Nc1c(Cl)ncnc1NCCCCCCCCCCCCNc1ncnc(Cl)c1N
inactive: [1] 3370 nM | [3] 5480 nM | [5] 7030 nM | [6] 2070 nM | [9] 3130 nM | [11] 1940 nM | [12] 7110 nM | [13] 1280 nM | [14] 2730 nM | [16] 1540 nM | [18] 2350 nM | [19] 1550 nM | [21] 2140 nM | [22] 6050 nM | [23] 3190 nM | [27] 8240 nM | [28] 2300 nM | [30] 1990 nM | [31] 1320 nM | [32] 3440 nM | [33] 1500 nM | [35] 4180 nM | [36] 2860 nM | [37] 4600 nM | [38] 3120 nM | [39] 2590 nM | [40] 1940 nM | [41] 3720 nM | [45] 2050 nM | [47] 2690 nM | [48] 4570 nM | [50] 1900 nM | [51] 1740 nM | [55] 1900 nM
1880 nM: [54]
active: [2] 147 nM | [4] 162 nM | [7] < 10 nM | [8] 51 nM | [10] < 10 nM | [15] 218 nM | [17] 167 nM | [20] 1050 nM | [24] 85.7 nM | [25] < 10 nM | [26] 137 nM | [29] 46.9 nM | [34] 1010 nM | [42] < 10 nM | [43] 593 nM | [44] 254 nM | [46] < 10 nM | [49] < 10 nM | [52] 67.1 nM | [53] < 10 nM

C=CC1=CC(C)C[C@]1(O)C(=O)OC (some centres not stated)
inactive: [1] > 100000 nM | [2] 2750 nM | [3] > 100000 nM | [12] > 100000 nM | [57] > 100000 nM | [26] > 100000 nM | [35] > 100000 nM | [46] > 100000 nM | [47] 38500 nM
active: [4] < 10 nM | [5] < 10 nM | [6] < 10 nM | [7] < 10 nM | [8] < 10 nM | [9] < 10 nM | [10] < 10 nM | [11] < 10 nM | [13] < 10 nM | [14] < 10 nM | [15] < 10 nM | [16] < 10 nM | [17] < 10 nM | [18] < 10 nM | [19] < 10 nM | [20] < 10 nM | [21] < 10 nM | [22] < 10 nM | [56] < 10 nM | [23] < 10 nM | [24] < 10 nM | [25] < 10 nM | [27] < 10 nM | [28] < 10 nM | [29] < 10 nM | [30] < 10 nM | [31] < 10 nM | [32] < 10 nM | [33] < 10 nM | [34] < 10 nM | [36] < 10 nM | [37] < 10 nM | [38] < 10 nM | [39] < 10 nM | [40] < 10 nM | [58] < 10 nM | [59] < 10 nM | [41] < 10 nM | [42] < 10 nM | [43] < 10 nM | [44] < 10 nM | [45] < 10 nM | [48] < 10 nM | [49] < 10 nM | [50] < 10 nM | [51] < 10 nM | [52] < 10 nM | [53] < 10 nM | [55] < 10 nM
> 100000 nM: [54]

CCOC(=O)N1C(=O)C2C3C=CC(C2C1=O)C1C2C(=O)N(C(=O)OCC)C(=O)C2C31 (configuration not stated)
> 47200 nM: [54]
inactive: [1] > 100000 nM | [3] 43400 nM | [4] > 93100 nM | [5] > 100000 nM | [6] > 100000 nM | [7] > 100000 nM | [8] 20300 nM | [9] > 100000 nM | [10] > 100000 nM | [11] > 100000 nM | [12] > 77100 nM | [13] > 92000 nM | [14] > 87300 nM | [15] > 100000 nM | [16] > 100000 nM | [17] > 100000 nM | [18] > 100000 nM | [19] > 100000 nM | [20] > 100000 nM | [21] > 100000 nM | [22] > 100000 nM | [56] > 100000 nM | [23] > 100000 nM | [24] > 68100 nM | [25] > 45900 nM | [57] > 100000 nM | [26] > 100000 nM | [27] 98900 nM | [28] > 81300 nM | [29] > 39500 nM | [30] > 100000 nM | [31] > 100000 nM | [32] > 100000 nM | [33] > 100000 nM | [34] > 100000 nM | [35] > 100000 nM | [36] > 83000 nM | [37] > 100000 nM | [38] > 100000 nM | [39] > 74500 nM | [40] > 100000 nM | [58] > 100000 nM | [59] > 100000 nM | [41] > 100000 nM | [42] > 100000 nM | [43] > 100000 nM | [44] > 100000 nM | [45] > 100000 nM | [46] > 100000 nM | [47] > 41000 nM | [48] > 100000 nM | [49] > 46600 nM | [50] > 100000 nM | [51] > 43700 nM | [52] > 100000 nM | [53] > 100000 nM | [55] > 42700 nM
